In US4742053A, “3-Isoquinoliniomethyl cephalosporin derivatives” (Banyu Pharmaceutical Co., Ltd., priority 1984, dated 1988) one finds MIC data, which are given here for three compounds.

Assay in all cases: MIC by agar plate dilution method
Type in all cases: cell-based

One assay concerns P. cepacia 23. The settings on record: Burkholderia cepacia; P. cepacia 23; 10^6 CFU/ml; read-out: Minimum Inhibitory Concentration. As to the method:
(§1) The minimum inhibitory concentrations (MIC: μg/ml) of the compounds of the present invention against various microorganisms were measured by an agar plate dilution method (inoculum size: 10^6 CFU/ml) by using Sensitivity Disk Agar (Nissui) in comparison with Cefotaxime and Ceftazidime as comparative compounds.
(§2) Minimum Inhibitory Concentration (μg/ml; 10^6 CFU/ml)

A further assay deals with S. aureus JS-1. The settings on record: Staphylococcus aureus, JS1; S. aureus JS-1; 10^6 CFU/ml; read-out: Minimum Inhibitory Concentration. As to the method:
as §1, §2

The subject of a further assay is P. vulgaris No. 33. To be noted: Proteus vulgaris. As to the method: as §1, §2
For the next assay, the system named is P. vulgaris OB1043. The settings on record: Proteus vulgaris, OB1043, P. vulgaris OB1043; 10^6 CFU/ml; read-out: Minimum Inhibitory Concentration. The protocol: as §1, §2
A further assay has as its system P. aeruginosa AKR17. To be noted: Pseudomonas aeruginosa, AKR17, P. aeruginosa AKR17; 10^6 CFU/ml; read-out: Minimum Inhibitory Concentration. As to the method: as §1, §2
For a further assay, the system named is P. aeruginosa AK109. To be noted: Pseudomonas aeruginosa, AK109, P. aeruginosa AK109; 10^6 CFU/ml; read-out: Minimum Inhibitory Concentration. The protocol:
as §1, §2

The subject of another assay is A. calcoaceticus No. 14. To be noted: Acinetobacter calcoaceticus, NO.14, A. calcoaceticus No. 14; 10^6 CFU/ml; read-out: Minimum Inhibitory Concentration. As to the method: as §1, §2
For the next assay, the system named is S. marcescens No. 16-2. To be noted: Serratia marcescens. As to the method: as §1, §2
The next assay deals with E. coli ML1410/Rte16. The settings on record: Escherichia coli, ML1410/RTE16, read-out: Minimum Inhibitory Concentration, E. coli ML1410/Rte16; 10^6 CFU/ml. The protocol: as §1, §2
The subject of the next assay is E. coli W3630/Rms213. The settings on record: Escherichia coli, W3630/RMS213, read-out: Minimum Inhibitory Concentration, E. coli W3630/Rms213; 10^6 CFU/ml. As to the method: as §1, §2
Another assay has as its system P. mirabilis JY10. The settings on record: Proteus mirabilis. The protocol:
as §1, §2

The test system of a further assay is E. coli NIHJJC-2. To be noted: Escherichia coli, NIHJJC2, E. coli NIHJJC-2; 10^6 CFU/ml; read-out: Minimum Inhibitory Concentration. As to the method:
as §1, §2

A further assay concerns E. cloaceae Nek 39. To be noted: E. cloaceae Nek 39; 10^6 CFU/ml; read-out: Minimum Inhibitory Concentration. As to the method:
as §1, §2

A further assay relates to E. coli C/Rms149. The settings on record: Escherichia coli, read-out: Minimum Inhibitory Concentration, E. coli C/Rms149; 10^6 CFU/ml. The protocol: as §1, §2
The next assay deals with E. coli CSH. To be noted: Escherichia coli, 10^6 CFU/ml, read-out: Minimum Inhibitory Concentration. The protocol: as §1, §2
Another assay deals with P. maltophilia IID 1275. To be noted: Stenotrophomonas maltophilia, IID1275; P. maltophilia IID 1275; 10^6 CFU/ml; read-out: Minimum Inhibitory Concentration. The protocol:
as §1, §2

The test system of another assay is E. coli W3630/Rms212. To be noted: Escherichia coli, W3630/RMS212, read-out: Minimum Inhibitory Concentration, E. coli W3630/Rms212; 10^6 CFU/ml. As to the method:
as §1, §2

For a further assay, the system named is E. coli CSH2. To be noted: Escherichia coli, 10^6 CFU/ml, read-out: Minimum Inhibitory Concentration. The protocol:
as §1, §2

A further assay relates to S. aureus NIHJJC-1. The settings on record: Staphylococcus aureus, NIHJJC1, S. aureus NIHJJC-1; 10^6 CFU/ml; read-out: Minimum Inhibitory Concentration. As to the method:
as §1, §2

A further assay deals with C. freundii No. 7. The settings on record: Citrobacter freundii; C. freundii No. 7; 10^6 CFU/ml; read-out: Minimum Inhibitory Concentration. The protocol: as §1, §2
The test system of the next assay is K. pneumoniae No. 42. To be noted: Klebsiella pneumoniae; K. pneumoniae No. 42; 10^6 CFU/ml; read-out: Minimum Inhibitory Concentration. The protocol:
as §1, §2

The mark [1] stands for this setting: P. vulgaris No. 33, 10^6 CFU/ml, read-out: Minimum Inhibitory Concentration.
Where [2] appears, read: NO.162, S. marcescens No. 16-2, 10^6 CFU/ml, read-out: Minimum Inhibitory Concentration.
Setting [3] is: P. mirabilis JY10, 10^6 CFU/ml, read-out: Minimum Inhibitory Concentration.

Converted amounts (≈) assume the structure as drawn. Where two headings read alike, the source gives them in different places.

`CON=C(C(=O)NC1C(=O)N2C(C(=O)[O-])=C(C[N+]3(C)CCc4cc(O)c(O)c(O)c4C3)CSC12)c1csc(N)n1` (stereo not drawn) [Ex. 12, 7-[(Z)-2-(2-aminothiazol-4-yl)-2-methoxyiminoacetamido]-3-(2-methyl-1,2,3,4-tetrahydro-6,7,8-trihydroxy-2-isoquinolinium)methyl-3-cephem-4-carboxylate]: the MIC in the assay on P. cepacia 23 came to 1.56 µg/mL (≈ 2.64 µM); with S. aureus JS-1 it was 50 µg/mL (≈ 84.7 µM); in the assay with P. vulgaris No. 33 (setting [1]), 1.56 µg/mL (≈ 2.64 µM); in the assay with P. vulgaris OB1043 it was 3.12 µg/mL (≈ 5.28 µM); with P. aeruginosa AKR17 it was 50 µg/mL (≈ 84.7 µM); in the assay with P. aeruginosa AK109, 25 µg/mL (≈ 42.3 µM). In addition, the MIC was 25 µg/mL (≈ 42.3 µM) in the assay on A. calcoaceticus No. 14; 100 µg/mL (≈ 169 µM) in the assay on S. marcescens No. 16-2 (setting [2]); 1.56 µg/mL (≈ 2.64 µM) in the assay with E. coli ML1410/Rte16; 3.12 µg/mL (≈ 5.28 µM) in the assay with E. coli W3630/Rms213; 0.78 µg/mL (≈ 1.32 µM) in the assay with P. mirabilis JY10 (setting [3]); 0.78 µg/mL (≈ 1.32 µM) with E. coli NIHJJC-2. The MIC is 1.56 µg/mL (≈ 2.64 µM) in the assay with E. cloaceae Nek 39; 0.78 µg/mL (≈ 1.32 µM) in the assay with E. coli C/Rms149; 3.12 µg/mL (≈ 5.28 µM) in the assay with E. coli CSH; 100 µg/mL (≈ 169 µM) in the assay on P. maltophilia IID 1275; 0.78 µg/mL (≈ 1.32 µM) with E. coli W3630/Rms212; 1.56 µg/mL (≈ 2.64 µM) with E. coli CSH2. Further, the MIC in the assay on S. aureus NIHJJC-1 worked out at 25 µg/mL (≈ 42.3 µM); in the assay on C. freundii No. 7 it was 12.5 µg/mL (≈ 21.2 µM); with K. pneumoniae No. 42 it was 1.56 µg/mL (≈ 2.64 µM).
For `CC(C)ON=C(C(=O)NC1C(=O)N2C(C(=O)[O-])=C(C[N+]3(C)CCc4cc(O)c(O)cc4C3)CSC12)c1csc(N)n1` (stereo not drawn) [Ex. 13, 7-[(Z)-2-(2-aminothiazol-4-yl)-2-isopropoxyiminoacetamido]-3-(6,7-dihydroxy-2-methyl-1,2,3,4-tetrahydro-2-isoquinolinium)methyl-3-cephem-4-carboxylate], the MIC in the assay with P. cepacia 23 is 0.05 µg/mL (≈ 0.083 µM); with S. aureus JS-1, 12.5 µg/mL (≈ 20.7 µM); in the assay on P. vulgaris No. 33 (setting [1]), 0.1 µg/mL (≈ 0.166 µM); with P. vulgaris OB1043 it was 0.2 µg/mL (≈ 0.332 µM); with P. aeruginosa AKR17, 0.2 µg/mL (≈ 0.332 µM); in the assay on P. aeruginosa AK109, 0.05 µg/mL (≈ 0.083 µM). Besides, the MIC with A. calcoaceticus No. 14 was 0.2 µg/mL (≈ 0.332 µM); in the assay on S. marcescens No. 16-2 (NO.162, read-out: Minimum Inhibitory Concentration), 1.56 µg/mL (≈ 2.59 µM); with E. coli ML1410/Rte16 it was 0.025 µg/mL (≈ 0.0415 µM); with E. coli W3630/Rms213, 0.05 µg/mL (≈ 0.083 µM); with P. mirabilis JY10 (JY10, read-out: Minimum Inhibitory Concentration), 0.39 µg/mL (≈ 0.647 µM); in the assay on E. coli NIHJJC-2, 0.05 µg/mL (≈ 0.083 µM). Besides, the MIC was 0.006 µg/mL (≈ 0.00996 µM) in the assay on E. cloaceae Nek 39; 0.025 µg/mL (≈ 0.0415 µM) in the assay on E. coli C/Rms149; 0.05 µg/mL (≈ 0.083 µM) in the assay on E. coli CSH; 12.5 µg/mL (≈ 20.7 µM) in the assay with P. maltophilia IID 1275; 0.0125 µg/mL (≈ 0.0207 µM) with E. coli W3630/Rms212; 0.05 µg/mL (≈ 0.083 µM) with E. coli CSH2. The MIC in the assay on S. aureus NIHJJC-1 stood at 3.12 µg/mL (≈ 5.18 µM); with C. freundii No. 7 it was 3.12 µg/mL (≈ 5.18 µM); with K. pneumoniae No. 42, 0.1 µg/mL (≈ 0.166 µM).
Turning to `C[N+]1(CC2=C(C(=O)[O-])N3C(=O)C(NC(=O)C(=NOCC(=O)O)c4csc(N)n4)C3SC2)CCc2cc(O)c(O)cc2C1` (stereo not drawn) [Ex. 14-F, 7-[(Z)-2-(2-aminothiazol-4-yl)-2-carboxymethoxyiminoacetamido]-3-(6,7-dihydroxy-2-methyl-1,2,3,4-tetrahydro-2-isoquinolinium)methyl-3-cephem-4-carboxylate], the MIC was determined as 0.05 µg/mL (≈ 0.0808 µM) with P. cepacia 23; 50 µg/mL (≈ 80.8 µM) in the assay on S. aureus JS-1; 0.05 µg/mL (≈ 0.0808 µM) in the assay with P. vulgaris No. 33 (NO.33, read-out: Minimum Inhibitory Concentration); 0.1 µg/mL (≈ 0.162 µM) with P. vulgaris OB1043; 0.1 µg/mL (≈ 0.162 µM) in the assay on P. aeruginosa AKR17; 0.05 µg/mL (≈ 0.0808 µM) with P. aeruginosa AK109. Besides, the MIC in the assay on A. calcoaceticus No. 14 is 0.1 µg/mL (≈ 0.162 µM); in the assay with S. marcescens No. 16-2 (setting [2]), 0.39 µg/mL (≈ 0.63 µM); in the assay with E. coli ML1410/Rte16 it was 0.025 µg/mL (≈ 0.0404 µM); in the assay with E. coli W3630/Rms213, 0.1 µg/mL (≈ 0.162 µM); in the assay on P. mirabilis JY10 (setting [3]), 0.2 µg/mL (≈ 0.323 µM); with E. coli NIHJJC-2, 0.025 µg/mL (≈ 0.0404 µM). Besides, the MIC in the assay on E. cloaceae Nek 39 is 0.006 µg/mL (≈ 0.0097 µM); in the assay on E. coli C/Rms149 it was 0.025 µg/mL (≈ 0.0404 µM); with E. coli CSH it was 0.05 µg/mL (≈ 0.0808 µM); with P. maltophilia IID 1275 it was 3.12 µg/mL (≈ 5.04 µM); with E. coli W3630/Rms212, 0.006 µg/mL (≈ 0.0097 µM); in the assay with E. coli CSH2, 0.025 µg/mL (≈ 0.0404 µM). Also, the figures for the MIC in the assay on S. aureus NIHJJC-1, with C. freundii No. 7 and in the assay on K. pneumoniae No. 42 were 12.5 µg/mL (≈ 20.2 µM), 0.78 µg/mL (≈ 1.26 µM) and 0.05 µg/mL (≈ 0.0808 µM), respectively.
